Article PMC8989696, “Characterization of furathiocarb metabolism in in-vitro human liver microsomes and recombinant cytochrome P450 enzymes” (Toxicology Reports, 2022)
Where “and” joins values, the source holds several entries; their conditions need not be identical. Equal entries are not always repeated. Where two headings read alike, the source gives them in different places.

Experiments:
[1] = tested on: human CYP activities other than CYP1A2, CYP2B6, CYP2C9, CYP2C19; experiment: N-in-one CYP inhibition assay, pooled human hepatic microsomes, other CYP activities; assay type: in vitro ADME; conditions: pooled human liver microsomes (n = 10), pH 7.4, furathiocarb 1–100 µM, read-out: Other IC50 values (remaining CYP activities of N-in-one assay)
Procedure: (§1) N-in-one (“cocktail”) assay for measuring major CYP activities simultaneously, [55], [56] was employed to investigate human CYP-furathiocarb inhibitory interactions in pooled human hepatic microsomes. Furathiocarb (ﬁnal concentrations in the incubation mixture were 1, 5, 25, 50, and 100 µM) was added to the incubation mixture. The N-in-one was used earlier for the study of pesticide interactions and the details of the incubations with furathiocarb are described in Supplementary materials.
(§2) The kinetic parameters Vmax and Km were calculated by nonlinear regression. Bivariate linear Pearson’s correlation coefﬁcients (r2) were calculated between metabolite formations and model activities in the livers. GraphPad Prism 9 Software (Inc., San Diego, CA) Prism 9.0.0 (San Diego, CA) was used for kinetic parameters and correlation coefﬁcients analysis. The IC50 values were determined by linear regression analysis using OriginPro 2020 (MicroCal Software, Inc., Northampton, MA.
(§3) N-in-one assay was performed to investigate human CYP-furathiocarb inhibitory interactions. Furathiocarb (ﬁnal concentrations in the incubation mixture were 1, 5, 25, 50, and 100 µM) was added to the incubation mixture.
(§4) The N-in-one assay, analytical method and authentic standards have been described previously (Abass and Pelkonen 2013; Tolonen et al. 2007; Turpeinen et al. 2005). […]

[2] = target: T1, CYP2C9 (Homo sapiens, UniProt P11712); experiment: N-in-one CYP inhibition assay, pooled human hepatic microsomes, CYP2C9 (OH-TOL); assay type: in vitro ADME
T1 construct: from tissue; host or cells: pooled human liver microsomes (n = 10 donors)
T1 sequence (P11712 whole entry): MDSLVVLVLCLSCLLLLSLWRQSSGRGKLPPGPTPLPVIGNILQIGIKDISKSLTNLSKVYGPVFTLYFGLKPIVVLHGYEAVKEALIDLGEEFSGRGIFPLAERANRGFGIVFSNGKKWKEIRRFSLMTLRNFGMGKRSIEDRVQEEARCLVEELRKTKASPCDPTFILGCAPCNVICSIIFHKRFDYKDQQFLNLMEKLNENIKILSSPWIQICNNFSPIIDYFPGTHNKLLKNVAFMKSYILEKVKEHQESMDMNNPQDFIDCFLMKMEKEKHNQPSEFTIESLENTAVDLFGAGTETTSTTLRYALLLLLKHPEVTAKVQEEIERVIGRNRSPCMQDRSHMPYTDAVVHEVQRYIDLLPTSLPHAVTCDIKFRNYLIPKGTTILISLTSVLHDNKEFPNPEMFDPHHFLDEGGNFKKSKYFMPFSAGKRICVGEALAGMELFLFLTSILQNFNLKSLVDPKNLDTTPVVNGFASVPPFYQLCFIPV
Procedure: as §1, §2, §3, §4

[3] = Furathiocarb biotransformation kinetics in individual human hepatic microsomes (10 donors); assay type: in vitro ADME; conditions: for Km: human
Procedure: The incubation mixture (ﬁnal volume of 200 µl of 0.1 M phosphate buffer) contained 50 and 100 µM furathiocarb, 0.15 mg pooled liver microsomal protein (n = 10), and 1 mM NADPH. The reaction was initiated by NADPH after a 2 min pre-incubation at + 37 °C and was incubated for 30 min at + 37 °C. The reaction stopped with ice-cold acetonitrile containing an internal standard.
Enzyme kinetic parameters of both the microsomal samples and rCYP enzymes were measured. The incubation mixture contained furathiocarb (2.5, 10, 25, 50, 150 and 300 µM). Incubation times were 20 and 30 min for microsomal samples and rCYPs, respectively. Otherwise incubation mixtures and methods were the same as in metabolite identification. The rate of sum of furathiocarb metabolite formation was linear at least up to 0.15 mg protein/ml and 30 min incubation time in the standard experimental conditions.
The standard incubation mixture contained 50 and 100 µM furathiocarb, 0.15 mg pooled liver microsomal protein (n = 10), and 1 mM NADPH in a ﬁnal volume of 200 µl of 0.1 M phosphate buffer (pH 7.4). Furathiocarb was prepared once a week in dimethylsulfoxide (DMSO; ﬁnal amount in the reaction medium 1.0%). After a 2-min incubation at +37 ◦C in a shaking incubator block, the reaction was started by adding NADPH. The mixture was incubated at +37 ◦C for 30 min and the reaction was stopped with 600 µl of ice-cold acetonitrile containing an internal standard. All incubations were carried out in triplicate.

[4] = 7 cases of acute fatalities, cited from earlier work
[5] = tested on: UDP-glucuronosyl transferase (UGT); experiment: Incubation with human hepatic homogenate fortified with UDP-glucuronic acid (phase II metabolites); assay type: in vitro ADME; conditions: data not illustrated

SMILES: CCCCOC(=O)N(C)SN(C)C(=O)Oc1cccc2c1OC(C)(C)C2 [furathiocarb, Furathiocarb]
- IC50 at 20 min [1]: > 100 µM
- IC50 [2]: 16.5 to 18.5 µM
- CLint, sum of carbofuran metabolic pathway ([3]; HLM20): 310.4 µL (mg protein min)
- CLint, sum of furathiocarb oxidation pathways ([3]; HLM20): 12.63 µL (mg protein min)
- Vmax, sum of carbofuran metabolic pathway ([3]; HLM20): 19.6 ± 1.7 nmol (mg protein min)
- Vmax, sum of furathiocarb oxidation pathways ([3]; HLM20): 4.3 ± 0.8 nmol (mg protein min)
- carbofuran pathway / oxidation pathways (CLint ratio) ([3]; HLM20): 24.5 fold
- CLint, sum of carbofuran metabolic pathway ([3]; HLM21): 339.0 µL (mg protein min)
- CLint, sum of furathiocarb oxidation pathways ([3]; HLM21): 9.22 µL (mg protein min)
- Vmax, sum of carbofuran metabolic pathway ([3]; HLM21): 22.6 ± 2.5 nmol (mg protein min)
- Vmax, sum of furathiocarb oxidation pathways ([3]; HLM21): 4.1 ± 1.1 nmol (mg protein min)
- carbofuran pathway / oxidation pathways (CLint ratio) ([3]; HLM21): 36.8 fold
- CLint, sum of carbofuran metabolic pathway ([3]; HLM22): 619.7 µL (mg protein min)
- Vmax, sum of carbofuran metabolic pathway ([3]; HLM22): 44.5 nmol/ (mg protein min) and 44.5 ± 5.1 nmol/ (mg protein min)
- CLint, sum of carbofuran metabolic pathway ([3]; HLM23): 348.6 µL (mg protein min)
- CLint, sum of furathiocarb oxidation pathways ([3]; HLM23): 13.48 µL (mg protein min)
- Vmax, sum of carbofuran metabolic pathway ([3]; HLM23): 17.4 ± 1.6 nmol (mg protein min)
- Vmax, sum of furathiocarb oxidation pathways ([3]; HLM23): 3.5 ± 7.3 nmol (mg protein min)
- carbofuran pathway / oxidation pathways (CLint ratio) ([3]; HLM23): 25.9 fold
- CLint, sum of carbofuran metabolic pathway ([3]; HLM24): 404.5 µL (mg protein min)
- CLint, sum of furathiocarb oxidation pathways ([3]; HLM24): 12.25 µL (mg protein min)
- Vmax, sum of carbofuran metabolic pathway ([3]; HLM24): 21.9 ± 2.1 nmol (mg protein min)
- Vmax, sum of furathiocarb oxidation pathways ([3]; HLM24): 5.1 ± 1.3 nmol (mg protein min)
- carbofuran pathway / oxidation pathways (CLint ratio) ([3]; HLM24): 33.0 fold
- CLint, sum of carbofuran metabolic pathway ([3]; HLM28): 779.6 µL (mg protein min)
- CLint, sum of furathiocarb oxidation pathways ([3]; HLM28): 6.75 µL (mg protein min)
- Vmax, sum of carbofuran metabolic pathway ([3]; HLM28): 43.6 ± 4.7 nmol (mg protein min)
- Vmax, sum of furathiocarb oxidation pathways ([3]; HLM28): 11.5 nmol/ (mg protein min) and 11.5 ± 6.4 nmol/ (mg protein min)
- carbofuran pathway / oxidation pathways (CLint ratio) ([3]; HLM28): 115 fold and 115.4 fold
- CLint, sum of carbofuran metabolic pathway ([3]; HLM29): 378.2 µL (mg protein min)
- CLint, sum of furathiocarb oxidation pathways ([3]; HLM29): 10.73 µL (mg protein min)
- Vmax, sum of carbofuran metabolic pathway ([3]; HLM29): 24.3 ± 2.5 nmol (mg protein min)
- Vmax, sum of furathiocarb oxidation pathways ([3]; HLM29): 5.3 ± 1.4 nmol (mg protein min)
- carbofuran pathway / oxidation pathways (CLint ratio) ([3]; HLM29): 35.2 fold
- CLint, sum of carbofuran metabolic pathway ([3]; HLM30): 701.2 µL (mg protein min)
- CLint, sum of furathiocarb oxidation pathways ([3]; HLM30): 10.99 µL (mg protein min)
- Vmax, sum of carbofuran metabolic pathway ([3]; HLM30): 18.2 ± 1.8 nmol (mg protein min)
- Vmax, sum of furathiocarb oxidation pathways ([3]; HLM30): 5.1 ± 1.3 nmol (mg protein min)
- carbofuran pathway / oxidation pathways (CLint ratio) ([3]; HLM30): 64 fold and 63.8 fold
- CLint, sum of carbofuran metabolic pathway ([3]; HLM31): 244 µl/ (mg protein min) and 244.3 µl/ (mg protein min)
- CLint, sum of furathiocarb oxidation pathways ([3]; HLM31): 7.0 µl/ (mg protein min) and 7.00 µl/ (mg protein min)
- Vmax, sum of carbofuran metabolic pathway ([3]; HLM31): 15.5 nmol/ (mg protein min) and 15.5 ± 1.1 nmol/ (mg protein min)
- Vmax, sum of furathiocarb oxidation pathways ([3]; HLM31): 1.7 nmol/ (mg protein min) and 1.7 ± 0.3 nmol/ (mg protein min)
- carbofuran pathway / oxidation pathways (CLint ratio) ([3]; HLM31): 34.9 fold
- CLint, sum of carbofuran metabolic pathway ([3]; HLM32): 399.9 µL (mg protein min)
- CLint, sum of furathiocarb oxidation pathways ([3]; HLM32): 13.04 µL (mg protein min)
- Vmax, sum of carbofuran metabolic pathway ([3]; HLM32): 15.5 nmol/ (mg protein min) and 15.5 ± 1.4 nmol/ (mg protein min)
- Vmax, sum of furathiocarb oxidation pathways ([3]; HLM32): 3.7 ± 0.6 nmol (mg protein min)
- carbofuran pathway / oxidation pathways (CLint ratio) ([3]; HLM32): 30.6 fold
- Km ([3]; pH 7.4, HLM20, read-out: Km, sum of carbofuran metabolic pathway): 63.2 ± 16.3 µM
- Km ([3]; pH 7.4, HLM20, read-out: Km, sum of furathiocarb oxidation pathways): 343 ± 128 µM
- Km ([3]; pH 7.4, HLM21, read-out: Km, sum of carbofuran metabolic pathway): 66.7 ± 20.6 µM
- Km ([3]; pH 7.4, HLM21, read-out: Km, sum of furathiocarb oxidation pathways): 453 ± 215 µM
- Km ([3]; pH 7.4, HLM22, read-out: Km, sum of carbofuran metabolic pathway): 71.8 ± 21.7 µM
- Km ([3]; pH 7.4, HLM23, read-out: Km, sum of carbofuran metabolic pathway): 50 ± 14.1 µM
- Km ([3]; pH 7.4, HLM23, read-out: Km, sum of furathiocarb oxidation pathways): 260 ± 117 µM
- Km ([3]; pH 7.4, HLM24, read-out: Km, sum of carbofuran metabolic pathway): 54.3 ± 16.1 µM
- Km ([3]; pH 7.4, HLM24, read-out: Km, sum of furathiocarb oxidation pathways): 410 ± 197 µM
- Km ([3]; pH 7.4, HLM28, read-out: Km, sum of carbofuran metabolic pathway): 55.8 ± 18 µM
- Km ([3]; pH 7.4, HLM28, read-out: Km, sum of furathiocarb oxidation pathways): 1710 ± 852 µM
- Km ([3]; pH 7.4, HLM29, read-out: Km, sum of carbofuran metabolic pathway): 64.2 ± 18.9 µM
- Km ([3]; pH 7.4, HLM29, read-out: Km, sum of furathiocarb oxidation pathways): 495 ± 237 µM
- Km ([3]; pH 7.4, HLM30, read-out: Km, sum of carbofuran metabolic pathway): 25.9 ± 9.5 µM
- Km ([3]; pH 7.4, HLM30, read-out: Km, sum of furathiocarb oxidation pathways): 456 ± 208 µM
- Km ([3]; pH 7.4, HLM31, read-out: Km, sum of carbofuran metabolic pathway): 63.3 ± 13.4 µM
- Km ([3]; pH 7.4, HLM31, read-out: Km, sum of furathiocarb oxidation pathways): 239 ± 79.5 µM
- Km ([3]; pH 7.4, HLM32, read-out: Km, sum of carbofuran metabolic pathway): 38.8 ± 11.3 µM
- Km ([3]; pH 7.4, HLM32, read-out: Km, sum of furathiocarb oxidation pathways): 280 ± 102 µM
- Ratio carbofuran metabolic pathway / furathiocarb oxidation pathway ([3]; range in 10-donor panel of hepatic microsomes): 24- to 115 fold
- Concentrations in the blood (average) ([4]; n = 7): 3600 ng/mL
- Concentrations in the blood (range) [4]: 100 to 21600 ng/mL
- Phase II metabolites [5]: no phase II metabolites were detected
